Results on 16 compounds are retold here after ChEMBL document CHEMBL1201862, “PubChem BioAssay data set” (2004).

The term IC50 denotes the point on the concentration scale where inhibition reaches its midpoint. In general, AC50 refers to the concentration at which the activity in the assay is half-maximal. By EC50 is commonly meant the midpoint of the concentration-response curve.

The structures appear in SMILES notation. Activity calls are given as the source filed them.

Experiment [1] can be described thus: inhibitors of Bluetongue virus cytopathic effect, confirmation, arbovirus, BSR cells (AID 1250).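 Note: protection from viral cytopathic effect measured as cell viability by ATP luminescence.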 It is filed as functional. Background: Cytopathic effects are the visible damage that an infection or toxin causes in cultured cells.
The nature of experiment [2]: cells.
Experiment [3] addresses Major prion protein (Homo sapiens, UniProt P04156). It is filed as functional, cell-based.
Experiment [4] in a line: ZM109 Env clade C HIV-1 fusion inhibitors, dose response, HeLa effector, CEM target cells, luciferase, cherry-pick (AID 652058). The class given is functional, cell-based.
Experiment [5] can be described thus: HepG2 cell cytotoxicity, dose response, cytotoxicity control for Shn3 inhibitor project, CellTiter-Glo, cherry-picked (AID 624134). The class given is functional, cell-based.
Experiment [6] can be described thus: control 3'UTR Renilla luciferase suppression, dose response, counter-screen for Shn3 inhibitor project, cell-based, Clone20-Shn3RL, cherry-picked (AID 624133). It is filed as functional. Background: A counterscreen serves to expose hits that act by an unwanted route or on another target.
A short description of experiment [7]: inhibitors of HIV Env-driven cell fusion, dose response, cherry-pick (AID 652057). It is filed as functional, cell-based.
Experiment [8] can be described thus: Shn3 3'UTR reporter inhibitors, dose response, cell-based, Clone20 osteoblasts, firefly luciferase, cherry-picked (AID 624132).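 Note: firefly luciferase luminescence from reporter carrying the Shn3 3'UTR in osteoblasts.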 The class given is functional.
Experiment [9] in a line: off-target signal loss in HeLa-CEM21 co-culture – HeLa F-luc CTL cells, cherry-picked, counter-screen for HIV-1 Env fusion inhibitor project, dose response (AID 652040).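 Note: potency for signal decrease marking cytotoxic or nonspecific inhibition.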 It is filed as functional, cell-based.
A short description of experiment [10]: inhibitors of clade B AD8 Env fusion, dose response, cell-based, cherry-pick (AID 652062).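 Note: luciferase signal from cell-cell fusion driven by HIV-1 clade B AD8 Env; potency is for inhibitors of fusion seen as a drop in luminescence.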 It is filed as functional.
For experiment [11], the target named is T1, Leucine aminopeptidase (Plasmodium falciparum 3D7, UniProt Q8IL11).
T1 sequence (Q8IL11 whole entry): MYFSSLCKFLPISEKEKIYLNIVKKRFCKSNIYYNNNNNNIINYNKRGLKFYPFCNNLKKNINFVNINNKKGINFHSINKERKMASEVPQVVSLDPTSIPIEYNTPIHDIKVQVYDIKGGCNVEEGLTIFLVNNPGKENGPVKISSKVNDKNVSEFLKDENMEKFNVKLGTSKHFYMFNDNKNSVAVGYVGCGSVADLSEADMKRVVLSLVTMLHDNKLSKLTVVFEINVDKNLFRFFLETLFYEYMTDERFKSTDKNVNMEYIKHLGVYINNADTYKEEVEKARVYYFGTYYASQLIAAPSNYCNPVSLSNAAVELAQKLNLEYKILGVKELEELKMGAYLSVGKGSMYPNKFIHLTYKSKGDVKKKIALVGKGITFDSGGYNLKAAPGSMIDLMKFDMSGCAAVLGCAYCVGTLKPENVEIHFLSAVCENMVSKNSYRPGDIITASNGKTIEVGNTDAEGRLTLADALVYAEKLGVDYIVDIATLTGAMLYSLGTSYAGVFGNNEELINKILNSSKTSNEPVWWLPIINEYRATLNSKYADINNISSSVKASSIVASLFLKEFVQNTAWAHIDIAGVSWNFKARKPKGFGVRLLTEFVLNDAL
The experiment in a line: P. falciparum M17LAP inhibitors, primary screen, biochemical, fluorogenic H-Leu-NHMec substrate, 1536-well (AID 1619). The class given is functional.

Experiment [12] concerns Streptococcus. Put plainly: Group A Streptococcus viability loss, dose response, counter-screen for streptokinase expression inhibitor project, luminescence, BacTiterGlo (AID 1915).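 Note: potency for reduction of bacterial viability or growth.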 It is filed as functional, organism-based.
Experiment [13] concerns the target Beta-galactosidase (Escherichia coli, UniProt Q8VNN2). The experiment in a line: PubChem AID 485352. It is filed as functional.
For experiment [14], the system named is Streptococcus sp. 'group A'. The experiment in a line: growth inhibition of control SK(-) GAS strain, dose response, counter-screen for streptokinase expression inhibitor project, luminescence, kanamycin, BacTiterGlo, confirmation (AID 1900). The class given is functional, organism-based.
Experiment [15] concerns the target T2, Streptokinase A (Streptococcus pyogenes serotype M1, UniProt P10520).
T2 sequence (P10520 whole entry): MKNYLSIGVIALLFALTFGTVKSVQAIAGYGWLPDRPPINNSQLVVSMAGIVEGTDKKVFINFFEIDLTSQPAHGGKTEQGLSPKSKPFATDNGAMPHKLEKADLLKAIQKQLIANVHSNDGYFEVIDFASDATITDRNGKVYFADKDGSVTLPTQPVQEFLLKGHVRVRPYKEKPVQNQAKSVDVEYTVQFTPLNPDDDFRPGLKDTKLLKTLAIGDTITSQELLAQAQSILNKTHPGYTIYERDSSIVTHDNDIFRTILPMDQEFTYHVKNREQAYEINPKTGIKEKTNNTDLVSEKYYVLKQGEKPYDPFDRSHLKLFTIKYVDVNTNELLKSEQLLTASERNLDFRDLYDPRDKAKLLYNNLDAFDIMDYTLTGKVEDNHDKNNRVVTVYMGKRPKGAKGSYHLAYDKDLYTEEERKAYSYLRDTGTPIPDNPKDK
Put plainly: S. pyogenes streptokinase expression inhibitors, potency, dose response, plasminogen activation absorbance, OD405 (AID 1914).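 Note: secreted streptokinase activity via plasminogen activation per viability signal from cell pellet.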 It is filed as functional, Streptococcus pyogenes M1 GAS.

The target in experiment [16] is T3, Type-1 angiotensin II receptor (Homo sapiens, UniProt P30556).
T3 sequence (P30556 whole entry): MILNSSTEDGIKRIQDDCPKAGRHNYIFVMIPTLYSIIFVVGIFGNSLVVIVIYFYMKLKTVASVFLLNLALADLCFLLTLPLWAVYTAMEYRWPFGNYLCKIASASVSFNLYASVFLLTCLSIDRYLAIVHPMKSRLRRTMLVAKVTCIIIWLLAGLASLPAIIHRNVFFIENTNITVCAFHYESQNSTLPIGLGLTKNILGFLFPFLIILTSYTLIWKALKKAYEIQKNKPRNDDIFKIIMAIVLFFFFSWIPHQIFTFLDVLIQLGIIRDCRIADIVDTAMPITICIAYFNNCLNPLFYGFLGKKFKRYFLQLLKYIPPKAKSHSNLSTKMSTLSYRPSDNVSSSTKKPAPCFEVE
The experiment in a line: AT1 receptor antagonists, dose response, selectivity assay for APJ receptor antagonist project, cell-based, uHTS hits (AID 463214).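 Note: antagonist potency against angiotensin II stimulated AT1 response.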 It is filed as functional.

The nature of experiment [17]: P. falciparum ATP4 D1247Y mutant growth inhibitors, dose response, NITD609-resistant line, SYBR Green, dry powder (AID 1159571).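 Note: parasites synchronized at ring stage by sorbitol before testing.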 The class given is functional, cell-based.
Experiment [18] can be described thus: P. falciparum Dd2 growth inhibitors, dose response, SYBR Green, dry powder samples (AID 1159566).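 Note: potency for growth inhibition with lower SYBR green DNA signal.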 The class given is functional, cell-based.
Experiment [19] in a line: P. falciparum Dd2 growth inhibitors, dose response, SYBR Green, cherry-picked samples (AID 1159567). It is filed as functional, cell-based.
Experiment [20] is described as follows: HepG2 cell cytotoxicity, dose response, cytotoxicity control, plate reader, dry powder samples (AID 1159569).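 Note: inhibitor potency with signal falling toward the positive control level.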 The class given is functional, cell-based.
Experiment [21] in a line: P. falciparum 3D7-ScDHODH growth inhibitors, dose response, SYBR Green, dry powder samples (AID 1159570).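 Note: parasite growth measured after 72 hours of compound exposure.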 The class given is functional, cell-based.

On to `CCOC(=O)c1nn(-c2cccc(Cl)c2)c2nc(Nc3ccccc3)cc(=O)n12`, for which, in experiment [1], the half-maximal inhibitory concentration (IC50) is 33 µM (active).
Turning to `Cc1sc2ncnc(Sc3ccccc3C(=O)O)c2c1C`, the figures for the IC50 in experiment [2] and in [3] were > 138 µM (inactive) and 0.908 µM (active), respectively.
Take `CCOc1ccc(C2C(C#N)=C(N)SC(N)=C2C#N)cc1OCC`: the IC50 in experiment [2] was > 138 µM (inactive); in [3] it was 2.32 µM (active).
`CCC1(C)Cc2ccccc2-c2[nH]c(=S)[nH]c(=O)c21` (stereo not given): in [3], the IC50 is 2.93 µM (active).
In the case of `CCC1(C)Cc2ccccc2-c2nc(S)nc(O)c21` (stereo not given), the IC50 in experiment [2] was > 138 µM (inactive).
As to `O=C(c1ccccc1)N1CCN(c2ncnc3sc4c(c23)CCC4)CC1`, the AC50 was 41.4 µM (active) in [4]; 48 µM (active) in experiment [5]; 4.25 µM (active) in [6]; 28.7 µM (active) in [7]; 4.14 µM (active) in experiment [8].
`COc1ccc([C@@H]2[C@@H]3C(=O)N(C(C)(C)C)C(=O)[C@@H]3[C@]3(CC(C)C)C(=O)N(c4ccc(C(F)(F)F)cc4)C(=O)N23)cc1`: the AC50 is 2.51 µM (active) in experiment [4], 3.8 µM (active) in experiment [9], 1.6 µM (active) in experiment [7] and 4.52 µM (active) in experiment [10].
On to `COc1cccc(OC)c1C(=O)NC(C)C12CC3CC(CC(C3)C1)C2` (stereo not given), for which the IC50 in experiment [1] was 22.7 µM (active).
On the same count and under the same terms, the result for `Cc1ccc(C(=O)Nc2sc3c(c2C(=O)O)CCCCC3)o1` reads 28.4 µM (active).
As to `CCOC(=O)CC(=O)CSc1nc(O)c2sc(=S)n(-c3ccc(OCC)cc3)c2n1`, the IC50 was 21.6 µM (active) in [1] and 26.4 µM (active) in experiment [11].
Regarding `Cc1cc(NC(=O)CSc2nc(-c3cccs3)nc3ccccc23)no1`, the IC50 in experiment [2] is 53.6 µM (inactive); in experiment [3], 2.15 µM (active).
`COc1ccc(NC(=O)Nc2ccc3c(c2)C(=O)N([C@H](C)CO)C[C@H](C)[C@H](CN(C)Cc2ccncc2)OCCCC[C@H](C)O3)cc1`: the results for the half-maximal activity concentration (AC50) in experiment [4], in [7] and in experiment [10] were 8.87 µM (active), 13 µM (active) and 20.1 µM (active), respectively.
In the case of `Cc1ccc(C)c(NC(=S)N/N=C2/CCCCc3ccccc32)c1`, the EC50 in [12] was > 150 µM (not active); in [13], > 40 µM (inactive); in [14], 0.956 µM (active); in experiment [15] it was > 150 µM (not active). Also, in [16], the concentration for half-maximal inhibition (IC50) is recorded as > 40 µM (not active).
For `CO[C@H]1CN(C)C(=O)c2cc(NC(=O)Nc3cccc(Cl)c3)ccc2OC[C@H](C)NC[C@H]1C`, the concentration at half-maximal activity (AC50) in [17] is 5.09 µM (active); in experiment [18] it was 3.03 µM (active); in [19], 4.56 µM (active); in [20], 25 µM (active); in [21] it was 3.37 µM (active).
The like results for `CO[C@@H]1CN(C)C(=O)c2ccc(NC(=O)Nc3ccc(C(F)(F)F)cc3)cc2OC[C@H](C)NC[C@H]1C` were, in that order, 2.88 µM (active), 1.51 µM (active), 2.13 µM (active), 32.6 µM (active) and 2.96 µM (active).
On the same counts, the results for `C[C@@H]1CN([C@H](C)CO)C(=O)c2cccc(NC(=O)c3ccc(-c4nccs4)cc3)c2O[C@H]1CN(C)Cc1ccc2c(c1)OCO2` are 3.44 µM (active), 3.02 µM (active), 1.19 µM (active), > 100 µM (inactive) and 3.63 µM (active).
